Earlier results in patent publication US20260263483A1, “LOW DOSE THERAPEUTIC SUPPLEMENT TO MODULATE CYTOKINES” (VIRBAC CORPORATION, priority 2023, published 2026).
Like-named read-outs stand apart in the source and are kept apart here. Each block holds one molecule with its values, some of them ahead of it.

What was measured:
[1] = system: hepatic stellate cells (HSCs)
[2] = system: silicotic rats
[3] = system: diabetic rats; details: 60 mg/kg p.o., five weeks
[4] = system: Wistar albino rats; details: gentamicin-induced renal damage, oral 2, 5 and 10 mg/kg in 14% DMSO
[5] = target: TGF-β1; details: Balb/c 3T3 cells
[6] = system: diabetic rats
[7] = rats, administrated orally

SMILES: C=C(C)[C@@H]1CC[C@]2(CO)CC[C@]3(C)[C@H](CC[C@@H]4[C@@]5(C)CC[C@H](O)C(C)(C)[C@@H]5CC[C@]43C)[C@@H]12 [betulin]
ethanol-induced activation of hepatic stellate cells [1]: inhibited

SMILES: CC1(C)CC[C@]2(C(=O)O)CC[C@]3(C)C(=CC[C@@H]4[C@@]5(C)CC[C@H](O)C(C)(C)[C@@H]5CC[C@]43C)[C@@H]2C1 [oleanolic acid]
expression of cytokines and collagen [2]: decrease the expression of cytokines and collagen
kidney function [3]: ameliorates kidney function

concentration that inhibits the specific binding of TGF-β 1 by 50% [5]: 3.0 µg/mL
ingested ursolic acid recovered in plasma [7]: about 0.6%
SMILES: C[C@H]1[C@H](C)CC[C@]2(C(=O)O)CC[C@]3(C)C(=CC[C@@H]4[C@@]5(C)CC[C@H](O)C(C)(C)C5CC[C@]43C)[C@H]12 (some centres unmarked) [ursolic acid]
reno-protective effect [4]: reno-protective effect
protective effects on diabetic rats ([6]; high-dose, 50 mg/kg): significant protective effects
protective effects on diabetic rats ([6]; low-dose, 25 mg/kg): significant protective effects
